Reference: patent publication US6780883B2, “Amide inhibitors of microsomal triglyceride transfer protein” (Warner-Lambert Company, priority 1998, dated 2004)

How the values were obtained:
[1] = biological target: apolipoprotein(a), [apo(a)], apolipoproteinB-100, [apoB-100], coupling reaction that generates Lp(a) (Homo sapiens, UniProt P04114+P08519); assay: LPABC screen: lipoprotein(a) biochemical coupling assay, Lp(a) content by ELISA; conditions: recombinant apo(a) 17-kringle (293 cell media) + HepG2 conditioned media, 67 minutes, 37° C., 0.3 to 50 μM compound; read-out: Lp ABC IC50
Method: LPABC Screen The lipoprotein(a), [Lp(a)], biochemical coupling assay (LPABC) is used to characterize inhibitors of the apolipoprotein(a), [apo(a)], apolipoproteinB-100, [apoB-100], coupling reaction that generates Lp(a). Conditioned media from 293 cells (ATCC CRL-1573), permanently transfected with an apo(a) 17-kringle cDNA expression construct (pcDNA-AMP, In Vitrogen, Carlsbad, Calif.) using standard molecular biology techniques, was used as a source of recombinant apo(a) is diluted 1:3 with phosphate buffered saline (PBS) and 90 μL is pipetted into each well of a 96-well plate and placed into a 37° C. incubator for 10 minutes. Twenty microliters of a 0.3 to 50 μM solution of a compound of the present invention in PBS is added to the warmed plate. Ninety microliters of HepG2 (ATCC HB-8065) cell conditioned media diluted 1:3 with PBS is added to the apo(a)/compound mixture and mixed by pipetting up and down 5 times. The reaction is incubated for 67 minutes in a 37° C. incubator. A 100 μL aliquot of the reaction is removed and assayed for its Lp(a) content by an enzyme linked immunosorbent assay (ELISA).

[2] = tested on: Lp(a) production in HepG2^K17 cells; assay: LPA3 screen: inhibition of Lp(a) production in transfected HepG2 cells, Lp(a) in media by ELISA; format: cell-based; conditions: Homo sapiens, 8 hours, 0.3 to 50 μM compound, Lp(a) normalized for total protein, read-out: Lp A3 IC50
Method: The LPA3 screen is used to identify compounds that inhibit Lp(a) production. This screen employs permanently transfected HepG2 cells (HepG2^K17) that are generated using an apo(a) 17-kringle cDNA expression construct (pcDNA-AMP, In Vitrogen, Carlsbad, Calif.) in accordance with methods that are well-known in molecular biology.
HepG2^K17 cells are seeded in 96-well plates at a density of 75,000 cells per well in 0.25 mL of Dulbecco's Modified Eagle Media (DMEM) containing 10% fetal bovine serum (FBS). Seeded plates are incubated overnight in a 37° C., 5% CO2/95% 02 incubator. The media is removed, replaced with (1) fresh media, or (2) fresh media plus 0.3 to 50 μM of a compound of the present invention in 20 μL of PBS, and the plates returned to the incubator for 8 hours. After the additional 8 hours of incubation, Lp(a) is assayed in the media by ELISA. Cells are digested with 0.5N NaOH overnight and assayed for total protein. Lp(a) values are normalized for total protein content.

Row | IC50 [1] | Structure (SMILES) | IC50 [2]
1 | > 50 µM | CC(C)c1ccc(C(=O)N(Cc2ccccc2-c2ccccc2)c2cccnc2)cc1 [Example 72, N-Biphenyl-2-ylmethyl-4-isopropyl-N-pyridin-3-yl-benzamide] | 37.1 µM
2 | > 50 µM | CCOc1ccccc1C(=O)N(Cc1ccc2c(c1)C(C)(C)CCC2(C)C)c1cccnc1 [Example 73, 2-Ethoxy-N-pyridin-3-yl-N-(5,5,8,8-tetramethyl-5,6,7,8-tetrahydro-naphthalen-2-ylmethyl)-benzamide] | 10 µM
3 | > 50 µM | CCOc1ccccc1C(=O)N(Cc1cc(C(C)(C)C)cc(C(C)(C)C)c1)c1cccnc1 [Example 74, N-(3,5-Di-tert-butyl-benzyl)-2-ethoxy-N-pyridin-3-yl-benzamide] | 11.6 µM
4 | > 50 µM | CCOc1ccccc1C(=O)N(Cc1cc(Br)cc(Br)c1)c1cccnc1 [Example 75, N-(3,5-Dibromo-benzyl)-2-ethoxy-N-pyridin-3-yl-benzamide] | 14.9 µM
5 | > 50 µM | CCOc1ccccc1C(=O)N(Cc1ccc(OC)cc1)c1cccnc1 [Example 76, 2-Ethoxy-N-(4-methoxy-benzyl)-N-pyridin-3-yl-benzamide] | 33.3 µM
6 | > 50 µM | CCOc1ccccc1C(=O)N(Cc1cccc(OC)c1)c1cccnc1 [Example 77, 2-Ethoxy-N-(3-methoxy-benzyl)-N-pyridin-3-yl-benzamide] | 44.5 µM
7 | > 50 µM | CCOc1ccccc1C(=O)N(Cc1ccc(Cl)c(Cl)c1)c1cccnc1 [Example 78, N-(3,4-Dichloro-benzyl)-2-ethoxy-N-pyridin-3-yl-benzamide] | 10.3 µM
8 | > 50 µM | CCOc1ccccc1C(=O)N(Cc1ccc2ccccc2c1)c1cccnc1 [Example 79, 2-Ethoxy-N-naphthalen-2-ylmethyl-N-pyridin-3-yl-benzamide] | 17 µM
9 | > 50 µM | CCOc1ccccc1C(=O)N(Cc1ccc(C(C)(C)C)cc1)c1cccnc1 [Example 80, N-(4-tert-Butyl-benzyl)-2-ethoxy-N-pyridin-3-yl-benzamide] | 19.2 µM
10 | > 50 µM | CCOc1ccccc1C(=O)N(Cc1ccccc1-c1ccccc1)c1cccnc1 [Example 81, N-Biphenyl-2-ylmethyl-2-ethoxy-N-pyridin-3-yl-benzamide] | 0.9 µM
11 | > 50 µM | COc1ccccc1N(Cc1ccc2ccccc2c1)C(=O)c1ccccc1 [Example 85, N-(2-Methoxy-phenyl)-N-naphthalen-2-ylmethyl-benzamide] | 10.2 µM
12 | > 50 µM | COc1ccc(CN(C(=O)c2ccccc2)c2ccccc2OC)cc1 [Example 86, N-(4-Methoxy-benzyl)-N-(2-methoxy-phenyl)-benzamide] | 30.1 µM
13 | > 50 µM | COc1cccc(CN(C(=O)c2ccccc2)c2ccccc2OC)c1 [Example 87, N-(3-Methoxy-benzyl)-N-(2-methoxy-phenyl)-benzamide] | 19.2 µM
14 | > 50 µM | COc1ccccc1N(Cc1ccccc1-c1ccccc1)C(=O)c1ccccc1 [Example 88, N-Biphenyl-2-ylmethyl-N-(2-methoxy-phenyl)-benzamide] | 16.5 µM
15 | > 50 µM | CCN(CC)CCCc1ccc(N(Cc2ccc3c(c2)C(C)(C)CCC3(C)C)C(=O)c2ccccc2)cc1 [Example 89, N-[4-(3-Diethylamino-propyl)-phenyl]-N-(5,5,8,8-tetramethyl-5,6,7,8-tetrahydro-naphthalen-2-ylmethyl)-benzamide] | 13.2 µM
16 | > 50 µM | CCOc1ccccc1C(=O)N(Cc1ccccc1-c1ccccc1)c1ccc(OC)nc1 [Example 90, N-Biphenyl-2-ylmethyl-2-ethoxy-N-(6-methoxy-pyridin-3-yl)-benzamide] | 31.7 µM

Row | IC50 [1] | Structure (SMILES) | IC50 [2]
17 | > 50 µM | COc1ccc(N(Cc2ccccc2-c2ccccc2)C(=O)c2ccccc2OC)cn1 [Example 91, N-Biphenyl-2-ylmethyl-2-methoxy-N-(6-methoxy-pyridin-3-yl)-benzamide] | 46.5 µM
18 | > 50 µM | COc1ccccc1C(=O)N(Cc1cccnc1)Cc1ccccc1-c1ccccc1 [Example 92, N-Biphenyl-2-ylmethyl-2-methoxy-N-pyridin-3-ylmethyl-benzamide] | 6.3 µM
19 | > 50 µM | O=C(c1cc2ccccc2s1)N(Cc1ccccc1-c1ccccc1)c1ccncc1 [Example 93, Benzo[b]thiophene-2-carboxylic acid biphenyl-2-ylmethyl-pyridin-4-yl-amide] | 10.5 µM
20 | > 50 µM | COc1ccc(N(Cc2ccccc2-c2ccccc2)C(=O)c2ccccc2[N+](=O)[O-])cn1 [Example 94, N-Biphenyl-2-ylmethyl-N-(6-methoxy-pyridin-3-yl)-2-nitro-benzamide] | 24.8 µM
21 | > 50 µM | CCOc1ccc(C(=O)N(Cc2ccccc2-c2ccccc2)c2ccc(OC)nc2)cc1 [Example 95, N-Biphenyl-2-ylmethyl-4-ethoxy-N-(6-methoxy-pyridin-3-yl)-benzamide] | 11.4 µM
22 | > 50 µM | CCOc1ccccc1C(=O)N(Cc1cccnc1)Cc1ccccc1-c1ccccc1 [Example 96, N-Biphenyl-2-ylmethyl-2-ethoxy-N-pyridin-3-ylmethyl-benzamide] | 7.5 µM
23 | > 50 µM | O=C(c1cccc2c1OCO2)N(Cc1cccnc1)Cc1ccccc1-c1ccccc1 [Example 97, Benzo[1,3]dioxole-4-carboxylic acid biphenyl-2-ylmethyl-pyridin-3-ylmethyl-amide] | 7.8 µM
24 | > 50 µM | O=C(c1ccccc1Br)N(Cc1cccnc1)Cc1ccccc1-c1ccccc1 [Example 98, N-Biphenyl-2-ylmethyl-2-bromo-N-pyridin-3-ylmethyl-benzamide] | 8.5 µM
25 | > 50 µM | O=C(c1sc2ccccc2c1Cl)N(Cc1cccnc1)Cc1ccccc1-c1ccccc1 [Example 99, 3-Chloro-benzo[b]thiophene-2-carboxylic acid biphenyl-2-ylmethyl-pyridin-3-ylmethyl-amide] | 24.7 µM
26 | > 50 µM | O=C(c1ccccc1[N+](=O)[O-])N(Cc1cccnc1)Cc1ccccc1-c1ccccc1 [Example 100, N-Biphenyl-2-ylmethyl-2-nitro-N-pyridin-3-ylmethyl-benzamide] | 45.8 µM
27 | > 50 µM | O=C(c1ccccc1OCc1ccccc1)N(Cc1cccnc1)Cc1ccccc1-c1ccccc1 [Example 101, 2-Benzyloxy-N-biphenyl-2-ylmethyl-N-pyridin-3-ylmethyl-benzamide] | 10.8 µM
28 | > 50 µM | CCOc1ccc(C(=O)N(Cc2cccnc2)Cc2ccccc2-c2ccccc2)cc1 [Example 102, N-Biphenyl-2-ylmethyl-4-ethoxy-N-pyridin-3-ylmethyl-benzamide] | 15.9 µM
29 | > 50 µM | COc1ccc(C(=O)N(Cc2ccccc2-c2ccccc2)c2ccc(OC)cc2)cc1 [Example 103, N-Biphenyl-2-ylmethyl-4-methoxy-N-(4-methoxy-phenyl)-benzamide] | 49 µM
30 | > 50 µM | CCOc1ccccc1C(=O)N(Cc1ccccc1-c1ccccc1)c1ccc(OC)cc1 [Example 104, N-Biphenyl-2-ylmethyl-2-ethoxy-N-(4-methoxy-phenyl)-benzamide] | 11.9 µM
31 | > 50 µM | COc1ccc(N(Cc2ccccc2-c2ccccc2)C(=O)c2ccc3c(c2)OCO3)cc1 [Example 105, Benzo[1,3]dioxole-5-carboxylic acid biphenyl-2-ylmethyl-(4-methoxy-phenyl)-amide] | 13.4 µM

Row | Structure (SMILES) | IC50 [1] | IC50 [2]
32 | CCCCOc1ccc(N(Cc2ccc3c(c2)C(C)(C)CCC3(C)C)C(=O)CN(CC)CC)cn1 [Example 82, N-(6-Butoxy-pyridin-3-yl)-2-diethylamino-N-(5,5,8,8-tetramethyl-5,6,7,8-tetrahydro-naphthalen-2-ylmethyl)-acetamide] | > 50 µM | 36.8 µM
33 | CCCCOc1ccc(N(Cc2ccc(C(C)(C)C)cc2)C(=O)CN(CC)CC)cn1 [Example 83, N-(6-Butoxy-pyridin-3-yl)-N-(4-tert-butyl-benzyl)-2-diethylamino-acetamide] | > 50 µM | 34 µM
34 | CCCCOc1ccc(N(Cc2ccccc2-c2ccccc2)C(=O)CN(CC)CC)cn1 [Example 84, N-Biphenyl-2-ylmethyl-N-(6-butoxy-pyridin-3-yl)-2-diethylamino-acetamide] | > 50 µM | 43.7 µM
